Earlier results as cited in patent US10188593B2, “Polysaccharide delivery particle” (Spray-Tek, Inc., priority 2016, dated 2019).

conditions: perfume oil ingredients

| Octanol/water Partition Coefficient (logP) | SMILES |
| --- | --- |
| 1.85 | CC=Cc1ccc(O)c(OC)c1 [Isoeugenol] |
| 3.7 | CC(=O)OCCC(C)CCC=C(C)C (centres unmarked) [Citronellyl_acetate] |
| 2.64 | CCCCCCOC(C)=O [Hexyl_acetate] |
| 2.81 | C=CCOC(=O)COCCC(C)C [Allyl_amyl_glycolate] |
| 2.44 | C=CC(C)(O)CCC=C(C)C (centres unmarked) [Linalool] |
| 3.59 | CC(C)c1cccc(C(C)CC=O)c1 (centres unmarked) [Florhydral] |
| 4.02 | CC(=O)/C=C/C1=C(C)CCCC1(C)C [beta-Ionone] |
| 3.06 | CCC=C(C)C(O)CCCCC (centres unmarked) [Undecavertol] |
| 3.08 | C=CC(C)CCCC(C)(C)O (centres unmarked) [Dihydromyrcenol] |
| 2.76 | CC(C)=CCCC(C)CCO (single isomer, unassigned; (-)) [(−)-Citronellol] |

| SMILES | Octanol/water Partition Coefficient (logP) |
| --- | --- |
| C=C(C)[C@H]1CC=C(C)CC1 [d-Limonene] | 4.38 |
| CCCCCCCCCCCC#N [Lauronitrile] | 4.84 |
| CCOc1cc(C=O)ccc1O [Ethyl_vanillin] | 1.53 |
| CCOC(=O)C(C)CC (centres unmarked) [Ethyl_2-methylbutyrate] | 1.91 |
